# Experimental data from patent publication US6455540B1, “Methods of use of quinolone compounds against anaerobic pathogenic bacteria” (priority 1999, dated 2002).
# Legend:
# Test in all cases: Agar dilution MIC
# [1] = test system: Actinomyces odontolyticus; format: cell-based; details: Schaalia odontolytica, 10 isolates
# [2] = test system: Actinomyces israelii; format: cell-based; details: 6 isolates
# [3] = test system: Anaerobiospirillum thomasii; format: cell-based; details: Anaerobiospirillum thomasii, 13 isolates
# [4] = test system: Anaerobiospirillum succiniciproducens; format: cell-based; details: 3 isolates
# [5] = test system: Bacteroides gracilis; format: cell-based, Bacteroides gracilis (Campylobacter gracilis); details: 11 isolates
# [6] = test system: Bacteroides tectum; format: cell-based; details: Bacteroides pyogenes, 22 isolates
# [7] = test system: Bacteroides ureolyticus; format: cell-based; details: 17 isolates
# [8] = test system: Bilophila wadsworthia; format: cell-based; details: 16 isolates, agar supplemented with pyruvate
# [9] = test system: Clostridium clostridioforme; format: cell-based; details: Clostridium, 11 isolates
# [10] = test system: Clostridium dfficile; format: cell-based, Clostridium difficile; details: Clostridium, read-out: Minimal Inhibitory Concentration 90% (MIC90), 14 isolates
# [11] = test system: Clostridium inocuum; format: cell-based, Clostridium innocuum; details: Clostridium, 11 isolates
# [12] = test system: Clostridium ramosum; format: cell-based; details: 10 isolates
# [13] = test system: Fusobacterium spp group 1; format: cell-based; details: Fusobacterium, 19 isolates
# [14] = test system: Fusobacterium spp. group 2; format: cell-based, Fusobacterium mortiferum, necrogenes, ulcerans; details: 12 isolates
# [15] = test system: Fusobacterium russii; format: cell-based; details: Fusobacterium russii
# [16] = test system: Fusobacterium varium; format: cell-based; details: 17 isolates
# [17] = test system: Peptostreptococcus asaccharolyticus; format: cell-based; details: Peptoniphilus asaccharolyticus, 11 isolates
# [18] = test system: Peptostreptococcus magnus; format: cell-based; details: 13 isolates
# [19] = test system: Peptostreptococcus micros; format: cell-based; details: 12 isolates
# [20] = test system: Peptostreptococcus prevotii; format: cell-based; details: 9 isolates
# [21] = test system: Porphyromonas asaccharolyticus; format: cell-based, Porphyromonas asaccharolytica; details: Porphyromonas, 11 isolates
# [22] = test system: Porphyromonas canoris; format: cell-based; details: Porphyromonas canoris, 10 isolates
# [23] = test system: Porphyromonas gingivalis; format: cell-based; details: Porphyromonas gingivalis, 13 isolates
# [24] = test system: Porphyromonas macaccae; format: cell-based; details: Porphyromonas, 13 isolates
# [25] = test system: Porphyromonas spp.; format: cell-based, Porphyromonas cangingivalis, cansulci, circumdentaria, levii; details: Porphyromonas, 11 isolates
# [26] = test system: Prevotella bivia; format: cell-based; details: Prevotella bivia, 21 isolates
# [27] = test system: Prevotella buccae-oris group; format: cell-based; details: Prevotella, 22 isolates
# [28] = test system: Prevotella heparinolytica; format: cell-based; details: Prevotella heparinolytica, 16 isolates
# [29] = test system: Prevotella intermedia; format: cell-based; details: Prevotella intermedia, 11 isolates
# [30] = test system: Prevotella melaninogenica; format: cell-based; details: Prevotella melaninogenica, 12 isolates
# [31] = test system: Prevotella denticola/loeschii group; format: cell-based; details: Prevotella denticola, read-out: Minimal Inhibitory Concentration 50% (MIC50); 6 isolates
# [32] = test system: Veillonella spp.; format: cell-based; details: Veillonella, 24 isolates
# [33] = read-out: Minimal Inhibitory Concentration 90% (MIC90)
# [34] = read-out: Minimal Inhibitory Concentration 50% (MIC50)
smiles,measurement,setting,value
CCC[C@@H]1C[C@@H](C(=O)N[C@@H]([C@H]2O[C@H](SC)[C@H](O)[C@@H](O)[C@H]2O)[C@H](C)Cl)N(C)C1 [Clindamycin],MIC90,[1]; [33],0.25 µg/mL
same,MIC50,[1]; [34],0.125 µg/mL
same,Minimal Inhibitory Concentration Range,[2],0.06 to 0.25 µg/mL
same,MIC50,"[2]; Actinomyces israelii, read-out: Minimal Inhibitory Concentration 50% (MIC50)",0.06 µg/mL
same,MIC50,[3]; [34],32 µg/mL
same,MIC90,[3]; [33],> 32 µg/mL
same,Minimal Inhibitory Concentration Range,[4],32 µg/mL
same,MIC50,"[4]; Anaerobiospirillum succiniciproducens, read-out: Minimal Inhibitory Concentration 50% (MIC50)",32 µg/mL
same,Minimal Inhibitory Concentration Range,[5],0.03 to 8 µg/mL
same,MIC90,"[5]; Campylobacter gracilis, read-out: Minimal Inhibitory Concentration 90% (MIC90)",2 µg/mL
same,MIC50,"[5]; Campylobacter gracilis, read-out: Minimal Inhibitory Concentration 50% (MIC50)",0.25 µg/mL
same,MIC90,[6]; [33],≤ 0.015 µg/mL
same,MIC50,[6]; [34],≤ 0.015 µg/mL
same,Minimal Inhibitory Concentration Range,[7],0.03 to 0.5 µg/mL
same,MIC90,"[7]; Campylobacter ureolyticus, read-out: Minimal Inhibitory Concentration 90% (MIC90)",0.25 µg/mL
same,MIC50,"[7]; Campylobacter ureolyticus, read-out: Minimal Inhibitory Concentration 50% (MIC50)",0.06 µg/mL
same,Minimal Inhibitory Concentration Range,[8],0.25 to 2 µg/mL
same,MIC90,"[8]; Bilophila wadsworthia, read-out: Minimal Inhibitory Concentration 90% (MIC90)",2 µg/mL
same,MIC50,"[8]; Bilophila wadsworthia, read-out: Minimal Inhibitory Concentration 50% (MIC50)",0.5 µg/mL
same,MIC90,[9]; [33],2 µg/mL
same,MIC50,[9]; [34],0.06 µg/mL
same,MIC90,[10],> 32 µg/mL
same,MIC90,[11]; [33],> 32 µg/mL
same,MIC50,[11]; [34],0.5 µg/mL
same,Minimal Inhibitory Concentration Range,[12],0.25 to 4 µg/mL
same,MIC50,"[12]; Thomasclavelia ramosa, read-out: Minimal Inhibitory Concentration 50% (MIC50)",2 µg/mL
same,MIC90,"[12]; Thomasclavelia ramosa, read-out: Minimal Inhibitory Concentration 90% (MIC90)",2 µg/mL
same,MIC50,"[13]; GROUP1, read-out: Minimal Inhibitory Concentration 50% (MIC50)",0.06 µg/mL
same,MIC90,"[13]; GROUP1, read-out: Minimal Inhibitory Concentration 90% (MIC90)",0.125 µg/mL
same,Minimal Inhibitory Concentration Range,[14],0.06 to 8 µg/mL
same,MIC50,"[14]; Fusobacterium, read-out: Minimal Inhibitory Concentration 50% (MIC50)",1 µg/mL
same,MIC90,"[14]; Fusobacterium, read-out: Minimal Inhibitory Concentration 90% (MIC90)",8 µg/mL
same,MIC50,[15]; [34],0.03 µg/mL
same,MIC90,[15]; [33],0.06 µg/mL
same,Minimal Inhibitory Concentration Range,[16],0.06 to 16 µg/mL
same,MIC50,"[16]; Fusobacterium varium, read-out: Minimal Inhibitory Concentration 50% (MIC50)",4 µg/mL
same,MIC90,"[16]; Fusobacterium varium, read-out: Minimal Inhibitory Concentration 90% (MIC90)",16 µg/mL
same,MIC50,[17]; [34],0.06 µg/mL
same,MIC90,[17]; [33],> 32 µg/mL
same,Minimal Inhibitory Concentration Range,[18],0.06 to 2 µg/mL
same,MIC50,"[18]; Finegoldia magna, read-out: Minimal Inhibitory Concentration 50% (MIC50)",0.5 µg/mL
same,MIC90,"[18]; Finegoldia magna, read-out: Minimal Inhibitory Concentration 90% (MIC90)",2 µg/mL
same,Minimal Inhibitory Concentration Range,[19],0.06 to 0.125 µg/mL
same,MIC50,"[19]; Parvimonas micra, read-out: Minimal Inhibitory Concentration 50% (MIC50)",0.125 µg/mL
same,MIC90,"[19]; Parvimonas micra, read-out: Minimal Inhibitory Concentration 90% (MIC90)",0.125 µg/mL
same,Minimal Inhibitory Concentration Range,[20],0.030 to 32 µg/mL
same,MIC50,"[20]; Anaerococcus prevotii, read-out: Minimal Inhibitory Concentration 50% (MIC50)",1 µg/mL
same,MIC50,[21]; [34],≤ 0.015 µg/mL
same,MIC90,[21]; [33],> 32 µg/mL
same,MIC50,[22]; [34],≤ 0.015 µg/mL
same,MIC90,[22]; [33],≤ 0.015 µg/mL
same,MIC50,[23]; [34],≤ 0.015 µg/mL
same,MIC90,[23]; [33],≤ 0.015 µg/mL
same,MIC50,[24]; [34],≤ 0.015 µg/mL
same,MIC90,[24]; [33],≤ 0.015 µg/mL
same,MIC50,[25]; [34],≤ 0.015 µg/mL
same,MIC90,[25]; [33],≤ 0.015 µg/mL
same,MIC90,[26]; [33],0.03 µg/mL
same,MIC50,[26]; [34],≤ 0.015 µg/mL
same,MIC90,[27]; [33],0.03 µg/mL
same,MIC50,[27]; [34],≤ 0.015 µg/mL
same,MIC90,[28]; [33],≤ 0.015 µg/mL
same,MIC50,[28]; [34],≤ 0.015 µg/mL
same,MIC90,[29]; [33],≤ 0.015 µg/mL
same,MIC50,[29]; [34],≤ 0.015 µg/mL
same,MIC90,[30]; [33],0.5 µg/mL
same,MIC50,[30]; [34],≤ 0.015 µg/mL
same,MIC50,[31],≤ 0.015 µg/mL
same,MIC90,[32]; [33],2 µg/mL
same,MIC50,[32]; [34],0.06 µg/mL
